Reference: PubChem BioAssay (NCI)
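Assay format: 96-well plates, 48-hour exposure. Here, GI50 denotes the concentration required for 50% inhibition of growth. At the TGI there is no net growth.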

Experiments:
Assay in all cases: inhibition of tumour cell growth, NCI panel, 48 h
U251 CNS = tested on: U251 CNS
PC-3 prostate = tested on: PC-3 prostate
M14 melanoma = tested on: M14 melanoma
OVCAR-8 ovarian = tested on: OVCAR-8 ovarian
SNB-19 CNS = tested on: SNB-19 CNS
SK-OV-3 ovarian = tested on: SK-OV-3 ovarian
MOLT-4 leukemia = tested on: MOLT-4 leukemia
SR leukemia = tested on: SR leukemia
RPMI-8226 leukemia = tested on: RPMI-8226 leukemia
RXF 393 renal = tested on: RXF 393 renal
CAKI-1 renal = tested on: CAKI-1 renal
OVCAR-4 ovarian = tested on: OVCAR-4 ovarian
NCI-H226 lung = tested on: NCI-H226 lung
HCC-2998 colon = tested on: HCC-2998 colon
MDA-MB-435 = tested on: MDA-MB-435
HT29 colon = tested on: HT29 colon
SF-268 CNS = tested on: SF-268 CNS
UACC-62 melanoma = tested on: UACC-62 melanoma
CCRF-CEM leukemia = tested on: CCRF-CEM leukemia
MDA-MB-231 breast = tested on: MDA-MB-231 breast
A549 NSCLC = tested on: A549 NSCLC
UACC-257 melanoma = tested on: UACC-257 melanoma
NCI-H460 lung = tested on: NCI-H460 lung
LOX IMVI melanoma = tested on: LOX IMVI melanoma
SN12C renal = tested on: SN12C renal
OVCAR-5 ovarian = tested on: OVCAR-5 ovarian
MCF7 breast = tested on: MCF7 breast
K-562 leukemia = tested on: K-562 leukemia
HS 578T breast = tested on: HS 578T breast
SNB-75 CNS = tested on: SNB-75 CNS
HCT-15 colon = tested on: HCT-15 colon
NCI-H23 lung = tested on: NCI-H23 lung
SW-620 colon = tested on: SW-620 colon
ACHN renal = tested on: ACHN renal
HL-60(TB) leukemia = tested on: HL-60(TB) leukemia
SF-295 CNS = tested on: SF-295 CNS
COLO 205 colon = tested on: COLO 205 colon
SF-539 CNS = tested on: SF-539 CNS
HCT-116 colon = tested on: HCT-116 colon
DU-145 prostate = tested on: DU-145 prostate
IGROV1 ovarian = tested on: IGROV1 ovarian
BT-549 breast = tested on: BT-549 breast
T-47D breast = tested on: T-47D breast
SK-MEL-2 melanoma = tested on: SK-MEL-2 melanoma
UO-31 renal = tested on: UO-31 renal
A498 renal = tested on: A498 renal
MALME-3M melanoma = tested on: MALME-3M melanoma
HOP-62 NSCLC = tested on: HOP-62 NSCLC
OVCAR-3 ovarian = tested on: OVCAR-3 ovarian
SK-MEL-28 melanoma = tested on: SK-MEL-28 melanoma
TK-10 renal = tested on: TK-10 renal
NCI/ADR-RES ovarian = tested on: NCI/ADR-RES ovarian
786-0 renal = tested on: 786-0 renal
HOP-92 NSCLC = tested on: HOP-92 NSCLC
SK-MEL-5 melanoma = tested on: SK-MEL-5 melanoma
NCI-H522 lung = tested on: NCI-H522 lung
KM12 colon = tested on: KM12 colon

O=c1c(Oc2ccc(F)cc2F)cc2cnc(NC3CCOCC3)nc2n1C1CCS(=O)(=O)CC1
GI50 (U251 CNS): > 25 µM | TGI (U251 CNS): > 25 µM | GI50 (PC-3 prostate): > 25 µM | TGI (PC-3 prostate): > 25 µM | GI50 (M14 melanoma): > 25 µM | TGI (M14 melanoma): > 25 µM | GI50 (OVCAR-8 ovarian): > 25 µM | TGI (OVCAR-8 ovarian): > 25 µM | GI50 (SNB-19 CNS): > 25 µM | TGI (SNB-19 CNS): > 25 µM | GI50 (SK-OV-3 ovarian): > 25 µM | TGI (SK-OV-3 ovarian): > 25 µM | GI50 (MOLT-4 leukemia): > 25 µM | TGI (MOLT-4 leukemia): > 25 µM | GI50 (SR leukemia): > 25 µM | TGI (SR leukemia): > 25 µM | GI50 (RPMI-8226 leukemia): > 25 µM | TGI (RPMI-8226 leukemia): > 25 µM | GI50 (RXF 393 renal): > 25 µM | TGI (RXF 393 renal): > 25 µM | GI50 (CAKI-1 renal): > 25 µM | TGI (CAKI-1 renal): > 25 µM | GI50 (OVCAR-4 ovarian): > 25 µM | TGI (OVCAR-4 ovarian): > 25 µM | GI50 (NCI-H226 lung): > 25 µM | TGI (NCI-H226 lung): > 25 µM | GI50 (HCC-2998 colon): > 25 µM | TGI (HCC-2998 colon): > 25 µM | GI50 (MDA-MB-435): > 25 µM | TGI (MDA-MB-435): > 25 µM | GI50 (HT29 colon): > 25 µM | TGI (HT29 colon): > 25 µM | GI50 (SF-268 CNS): > 25 µM | TGI (SF-268 CNS): > 25 µM | GI50 (UACC-62 melanoma): > 25 µM | TGI (UACC-62 melanoma): > 25 µM | GI50 (CCRF-CEM leukemia): > 25 µM | TGI (CCRF-CEM leukemia): > 25 µM | GI50 (MDA-MB-231 breast): > 25 µM | TGI (MDA-MB-231 breast): > 25 µM | GI50 (A549 NSCLC): > 25 µM | TGI (A549 NSCLC): > 25 µM | GI50 (UACC-257 melanoma): > 25 µM | TGI (UACC-257 melanoma): > 25 µM | GI50 (NCI-H460 lung): > 25 µM | TGI (NCI-H460 lung): > 25 µM | GI50 (LOX IMVI melanoma): > 25 µM | TGI (LOX IMVI melanoma): > 25 µM | GI50 (SN12C renal): > 25 µM | TGI (SN12C renal): > 25 µM | GI50 (OVCAR-5 ovarian): > 25 µM | TGI (OVCAR-5 ovarian): > 25 µM | GI50 (MCF7 breast): > 25 µM | TGI (MCF7 breast): > 25 µM | GI50 (K-562 leukemia): > 25 µM | TGI (K-562 leukemia): > 25 µM | GI50 (HS 578T breast): > 25 µM | TGI (HS 578T breast): > 25 µM | GI50 (SNB-75 CNS): > 25 µM | TGI (SNB-75 CNS): > 25 µM | GI50 (HCT-15 colon): > 25 µM | TGI (HCT-15 colon): > 25 µM | GI50 (NCI-H23 lung): > 25 µM | TGI (NCI-H23 lung): > 25 µM | GI50 (SW-620 colon): > 25 µM | TGI (SW-620 colon): > 25 µM | GI50 (ACHN renal): > 25 µM | TGI (ACHN renal): > 25 µM | GI50 (HL-60(TB) leukemia): > 25 µM | TGI (HL-60(TB) leukemia): > 25 µM | GI50 (SF-295 CNS): > 25 µM | TGI (SF-295 CNS): > 25 µM | GI50 (COLO 205 colon): > 25 µM | TGI (COLO 205 colon): > 25 µM | GI50 (SF-539 CNS): > 25 µM | TGI (SF-539 CNS): > 25 µM | GI50 (HCT-116 colon): > 25 µM | TGI (HCT-116 colon): > 25 µM | GI50 (DU-145 prostate): > 25 µM | TGI (DU-145 prostate): > 25 µM | GI50 (IGROV1 ovarian): > 25 µM | TGI (IGROV1 ovarian): > 25 µM | GI50 (BT-549 breast): > 25 µM | TGI (BT-549 breast): > 25 µM | GI50 (T-47D breast): > 25 µM | TGI (T-47D breast): > 25 µM | GI50 (SK-MEL-2 melanoma): > 25 µM | TGI (SK-MEL-2 melanoma): > 25 µM | GI50 (UO-31 renal): > 25 µM | TGI (UO-31 renal): > 25 µM | GI50 (A498 renal): > 25 µM | TGI (A498 renal): > 25 µM | GI50 (MALME-3M melanoma): > 25 µM | TGI (MALME-3M melanoma): > 25 µM | GI50 (HOP-62 NSCLC): > 25 µM | TGI (HOP-62 NSCLC): > 25 µM | GI50 (OVCAR-3 ovarian): > 25 µM | TGI (OVCAR-3 ovarian): > 25 µM | GI50 (SK-MEL-28 melanoma): > 25 µM | TGI (SK-MEL-28 melanoma): > 25 µM | GI50 (TK-10 renal): > 25 µM | TGI (TK-10 renal): > 25 µM | GI50 (NCI/ADR-RES ovarian): > 25 µM | TGI (NCI/ADR-RES ovarian): > 25 µM | GI50 (786-0 renal): > 25 µM | TGI (786-0 renal): > 25 µM | GI50 (HOP-92 NSCLC): > 25 µM | TGI (HOP-92 NSCLC): > 25 µM | GI50 (SK-MEL-5 melanoma): > 25 µM | TGI (SK-MEL-5 melanoma): > 25 µM | GI50 (NCI-H522 lung): > 25 µM | TGI (NCI-H522 lung): > 25 µM | GI50 (KM12 colon): > 25 µM | TGI (KM12 colon): > 25 µM
